Test results taken from patent publication US20090326031A1, “ANTIVIRAL USE OF CATIONIC SURFACTANT” (priority 2006, published 2009).

Assays:
[1] = test system: Clostridium perfringens ATCC 77454; assay type: cell-based; settings: Gram + Bacteria
[2] = test system: Alcaligenes faecalis ATCC 8750; assay: minimum inhibitory concentration; assay type: cell-based; settings: Gram − Bacteria
From the text: (§1) This compound is remarkable for its inhibitory action over the proliferation of different microorganisms, such as bacteria, fungi and yeasts.

[3] = test system: Arthrobacter oxydans ATCC 8010; assay: minimum inhibitory concentration; assay type: cell-based; settings: Gram + Bacteria
From the text: as §1

[4] = test system: Aspergillus niger ATCC14604; assay: minimum inhibitory concentration; assay type: cell-based; settings: Fungi
From the text: as §1

[5] = test system: Aureobasidium pullulans ATCC 9348; assay: minimum inhibitory concentration; assay type: cell-based; settings: Fungi
From the text: as §1

[6] = test system: Bacillus cereus var mycoide ATCC 11778; assay: minimum inhibitory concentration; assay type: cell-based; settings: Gram + Bacteria
From the text: as §1

[7] = test system: Bacillus subtilis ATCC 6633; assay: minimum inhibitory concentration; assay type: cell-based; settings: Gram + Bacteria
From the text: as §1

[8] = test system: Bordetella bronchiseptica ATCC 4617; assay: minimum inhibitory concentration; assay type: cell-based; settings: Gram − Bacteria
From the text: as §1

[9] = test system: Candida albicans ATCC 10231; assay: minimum inhibitory concentration; assay type: cell-based; settings: Yeast
From the text: as §1

[10] = test system: Chaetonium globosum ATCC 6205; assay: minimum inhibitory concentration; assay type: cell-based; settings: Fungi
From the text: as §1

[11] = test system: Citrobacter freundii ATCC 22636; assay: minimum inhibitory concentration; assay type: cell-based; settings: Gram − Bacteria
From the text: as §1

[12] = test system: Enterobacter aerogenes CECT 689; assay: minimum inhibitory concentration; assay type: cell-based; settings: Gram − Bacteria
From the text: as §1

Escherichia coli 0157H7 = assay: minimum inhibitory concentration; assay type: cell-based; settings: Gram − Bacteria
From the text: as §1

[13] = test system: Escherichia coli ATCC 8739; assay: minimum inhibitory concentration; assay type: cell-based; settings: Gram − Bacteria
From the text: as §1

[14] = test system: Gliocadium virens ATCC 4645; assay: minimum inhibitory concentration; assay type: cell-based; settings: Fungi
From the text: as §1

[15] = test system: Klebsiella pneumoniae var pneumoniae CECT 178; assay: minimum inhibitory concentration; assay type: cell-based; settings: Gram − Bacteria
From the text: as §1

[16] = test system: Lactobacillus delbrueckii ssp lactis CECT 372; assay: minimum inhibitory concentration; assay type: cell-based; settings: Gram + Bacteria
From the text: as §1

[17] = test system: Leuconostoc mesenteroides CETC 912; assay: minimum inhibitory concentration; assay type: cell-based; settings: Gram + Bacteria
From the text: as §1

[18] = test system: Listeria monocytogenes ATCC 7644; assay: minimum inhibitory concentration; assay type: cell-based; settings: Gram + Bacteria
From the text: as §1

[19] = test system: Micrococcus luteus ATCC 9631; assay: minimum inhibitory concentration; assay type: cell-based; settings: Gram + Bacteria
From the text: as §1

[20] = test system: Mycobacterium phlei ATCC 41423; assay: minimum inhibitory concentration; assay type: cell-based; settings: Gram + Bacteria
From the text: as §1

[21] = test system: Penicillium chrysogenum CECT 2802; assay: minimum inhibitory concentration; assay type: cell-based; settings: Fungi
From the text: as §1

[22] = test system: Penicillium funiculosum CECT 2914; assay: minimum inhibitory concentration; assay type: cell-based; settings: Fungi
From the text: as §1

[23] = test system: Proteus mirabilis CECT 170; assay: minimum inhibitory concentration; assay type: cell-based; settings: Gram − Bacteria
From the text: as §1

[24] = test system: Pseudomonas aeruginosa ATCC 9027; assay: minimum inhibitory concentration; assay type: cell-based; settings: Gram − Bacteria
From the text: as §1

[25] = test system: Rhodotorula rubra CECT 1158; assay: minimum inhibitory concentration; assay type: cell-based; settings: Yeast
From the text: as §1

[26] = test system: Saccharomyces cerevisiae ATCC 9763; assay: minimum inhibitory concentration; assay type: cell-based; settings: Yeast
From the text: as §1

[27] = test system: Salmonella typhimurium ATCC16028; assay: minimum inhibitory concentration; assay type: cell-based; settings: Gram − Bacteria
From the text: as §1

[28] = test system: Serratia marcenses CECT 274; assay: minimum inhibitory concentration; assay type: cell-based; settings: Gram − Bacteria
From the text: as §1

[29] = test system: Staphylococcus aureus ATCC 6538; assay: minimum inhibitory concentration; assay type: cell-based; settings: Gram + Bacteria
From the text: as §1

[30] = test system: parainfluenza bovine type 3 strain SF-4 (ATCC VR-281); assay: activity of LAE against bovine parainfluenzae 3 virus (virus suspension, TCID50); assay type: cell-based; settings: LAE 200 ppm
Method: (§2) In the following experiments the reduction factor has been calculated.
(§3) This reduction factor is calculated according to the following formula
(§4) R′ presents the reduction factor, v′ represents the volume of the sample of the test compound, a′ is the virus concentration in the added sample (^10log value), v″ is the volume of the final sample, a″ is the virus concentration after treatment (^10log value).
(§5) In the following experiments the clearance factor has been calculated. The clearance factor is calculated according to the following formula: […]
(§6) CL is the elimination factor (clearance factor), q′ is the initial concentration of virus (^10log value), q″ is the final concentration of virus (^10log value).
Eagle minimum essential medium (EMEM) was obtained from Earle (ICN Flow, Rf. 11-100-24), was supplemented with
10% of fetal bovine serum (Biowhittaker, Ref. D14-810F), […] of glutamine (Biowhittaker, Ref. 17-605E), non-essential amino acids (Biowhittaker, Ref. 13-114E), 100 units of penicillin, 100 μg of streptomycin/ml and 1 mM of sodium pyruvate. LAE (CAS 60372-77-2) Lot No. 10234 with a LAE Content of 88.7%.
The investigated strain of the parainfluenza bovine type 3 was SF-4 (ATCC VR-281).
(§7) LAE was investigated at a concentration of 200 ppm.
All experiments were performed at room temperature.
8 ml of deionized water was mixed with 1 ml of the virus suspension. 1 ml of LAE solution (containing 2000 ppm of LAE) was added, leading to a final LAE concentration of 200 ppm.
After 5 and 60 minutes samples for determination were taken. The design of the experiment allowed for conclusions of the effectivity of LAE after contact times of 5 and 60 minutes.
The number of virus particles in the experiment were determined by the quantitative assay TCID50 (infectious dose of cultured tissue).

Herpes virus type 1 = assay: activity of LAE against Herpes virus type 1; assay type: cell-based, Herpes simplex virus; settings: LAE 200 ppm
Method: as §2, §3, §4, §5, §6
The virus which was investigated was the type Simplex virus of the subfamily Alphaherpesvirinae in the family Herpesviridae.
The conditions for the determination are similarly chosen according to the ones of example 1.
as §7

Vaccinia virus = assay type: cell-based; settings: LAE 200 ppm
metabolism in rats = assay type: in vivo; settings: eventually excreted as carbon dioxide and urea
toxicological studies = assay type: in vivo; settings: animals and humans

## CCCCCCCCCCCC(=O)N[C@@H](CCCN=C(N)N)C(=O)OCC.Cl [LAE, ethyl ester of the lauramide of the arginine monohydrochloride]
[1]
  M.I.C.: 16 ppm
[2]
  M.I.C.: 64 ppm
[3]
  M.I.C.: 64 ppm
[4]
  M.I.C.: 32 ppm
[5]
  M.I.C.: 16 ppm
[6]
  M.I.C.: 32 ppm
[7]
  M.I.C.: 16 ppm
[8]
  M.I.C.: 128 ppm
[9]
  M.I.C.: 16 ppm
[10]
  M.I.C.: 16 ppm
[11]
  M.I.C.: 64 ppm
[12]
  M.I.C.: 32 ppm
Escherichia coli 0157H7
  M.I.C.: 20 ppm
[13]
  M.I.C.: 32 ppm
[14]
  M.I.C.: 32 ppm
[15]
  M.I.C.: 32 ppm
[16]
  M.I.C.: 16 ppm
[17]
  M.I.C.: 32 ppm
[18]
  M.I.C.: 10 ppm
[19]
  M.I.C.: 128 ppm
[20]
  M.I.C.: 2 ppm
[21]
  M.I.C.: 128 ppm
[22]
  M.I.C.: 16 ppm
[23]
  M.I.C.: 32 ppm
[24]
  M.I.C.: 64 ppm
[25]
  M.I.C.: 16 ppm
[26]
  M.I.C.: 32 ppm
[27]
  M.I.C.: 32 ppm
[28]
  M.I.C.: 32 ppm
[29]
  M.I.C.: 32 ppm
[30]; 60 min contact, 10log values
  Clearance factor: ≧6.29 ± 0.32
  Reduction factor: ≧6.46 ± 0.32
[30]; 60 minutes
  remaining virus after treatment for 60 minutes: no remaining virus organisms were detected
[30]; room temperature, 10log value, TCID50, before addition 8.09 ± 0.33
  Virus concentration 60 min after addition of LAE: ≦1.63
Herpes virus type 1; 10log value, before addition 7.94 ± 0.37
  Virus concentration 60 min after addition of LAE: ≦1.70
Herpes virus type 1; 60 min contact, 10log values
  Clearance factor: ≧6.24 ± 0.37
  Reduction factor: ≧6.18 ± 0.36
Herpes virus type 1; 60 minutes
  remaining virus after treatment for 60 minutes: no remaining virus organisms were detected
Vaccinia virus; 10log value, before addition 5.94 ± 0.34
  Virus concentration 60 min after addition of LAE: 2.40
Vaccinia virus; 5 minutes
  living virus after treatment for 5 minutes: great reduction of the number of living microorganisms
Vaccinia virus; 60 min contact, 10log values
  Clearance factor: 3.54 ± 0.34
  Reduction factor: 3.92 ± 0.36
Vaccinia virus; 60 minutes
  living virus after treatment for 60 minutes: substantial decrease of the number of living Vaccinia virus organisms
Metabolism in rats
  absorption and metabolism: fast absorption and metabolisation into naturally-occurring amino acids and the fatty acid lauric acid
Toxicological studies
  toxicity: completely harmless to animals and humans
